From patent US10508109B2 (priority 2015, dated 2019) come the findings set out here.

Broadly, the IC50 is the concentration that inhibits the measured activity by half.

One test deals with PC14. The test can be described thus: Cell-based assay, anti-proliferative activity (Cell Counting Kit-8, 72 hours). The settings on record: Homo sapiens, read-out: IC50 (μM) PC14. An outline of the steps: (§1)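 CCK-8 viability read 72 h after compound exposure over an 8-point series from 1.5625 to 100 micro-M plus zero. Seeding density 2,000–3,000 cells/well; IC50 from the dilution series.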

In the next test the test system is CCD-18Co. Described as above. Conditions: Homo sapiens, read-out: IC50 (μM) CCD-18Co. An outline of the steps: as §1
For the next test, the system named is HCT-116. The test is described as above. The settings on record: Homo sapiens, read-out: IC50 (μM) HCT-116. An outline of the steps: as §1
In a further test the test system is HFL1. Described as above. Conditions: Homo sapiens, read-out: IC50 (μM) HFL1. An outline of the steps:
as §1

The target in a further test is SUV39H2 (Homo sapiens (Human), UniProt Q9H5I1). Conditions: read-out: IC50 (μM) Suv 39H2 assay; enzyme assay.
SUV39H2, sequence (Q9H5I1 whole entry): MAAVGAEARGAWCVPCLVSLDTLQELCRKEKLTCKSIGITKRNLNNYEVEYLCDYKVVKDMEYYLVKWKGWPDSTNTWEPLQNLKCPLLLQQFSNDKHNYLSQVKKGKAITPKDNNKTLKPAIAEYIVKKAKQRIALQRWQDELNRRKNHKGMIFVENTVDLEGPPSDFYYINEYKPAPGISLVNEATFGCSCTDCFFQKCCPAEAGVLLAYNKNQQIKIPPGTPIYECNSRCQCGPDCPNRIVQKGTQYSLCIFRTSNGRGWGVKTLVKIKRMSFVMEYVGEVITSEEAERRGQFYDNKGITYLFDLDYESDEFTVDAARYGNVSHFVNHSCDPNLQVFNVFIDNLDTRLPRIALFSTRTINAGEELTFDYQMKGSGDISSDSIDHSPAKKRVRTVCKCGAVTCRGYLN
For a further test, the system named is A549. The test can be described thus: Cell-based assay, anti-proliferative activity (Cell Counting Kit-8, 72 hours). The settings on record: Homo sapiens, read-out: IC50 (μM) A549. An outline of the steps:
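Seed cells in 96-well format; add inhibitors; measure growth by CCK-8 at end of exposure; derive IC50.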

[1] abbreviates: PC-14, PC14 cells, 72 hours, Cell Counting Kit-8.
The mark [2] stands for this setting: CCD-18Co cells, 72 hours, Cell Counting Kit-8.
Where [3] appears, read: HCT-116 cells, 72 hours, Cell Counting Kit-8.
The mark [4] stands for this setting: HFL1 cells, 72 hours, Cell Counting Kit-8.
[5] abbreviates: A549 cells, 72 hours, Cell Counting Kit-8.
Where [6] appears, read: PC-14, PC14 cells, Cell Counting Kit-8, 72 hours.
Where [7] appears, read: CCD-18Co cells, Cell Counting Kit-8, 72 hours.
[8] abbreviates: HCT-116 cells, Cell Counting Kit-8, 72 hours.
Setting [9] is: HFL1 cells, Cell Counting Kit-8, 72 hours.
Where [10] appears, read: A549 cells, Cell Counting Kit-8, 72 hours.

Like-named read-outs stand apart in the source and are kept apart here.

As for `COc1cc(OC)c(-c2cn3ccc(N4CC[C@H](NCc5ccccn5)C4)cc3n2)cc1Cl` [Example 299, (S)-1-(2-(5-chloro-2,4-dimethoxyphenyl)imidazo[1,2-a]pyridin-7-yl)-N-(pyridin-2-ylmethyl)pyrrolidin-3-amine], the IC50 with PC14 (setting [1]) was found to be 3.5 µM; in the test with CCD-18Co (setting [2]), 5.5 µM; with HCT-116 (setting [3]) it was 4.5 µM; in the test with HFL1 (setting [4]) it was 6.2 µM; on SUV39H2 it was 0.00721 µM; with A549 (setting [5]) it was 5.3 µM.

With `COc1cc(OC)c(-c2cn3ccc(N4CCN(CC#N)CC4)cc3n2)cc1Cl` [Example 95, 2-(4-(2-(5-chloro-2,4-dimethoxyphenyl)imidazo[1,2-a]pyridin-7-yl)piperazin-1-yl)acetonitrile], the IC50 amounted to 3 µM in the test on PC14 (setting [6]); 5.3 µM in the test with CCD-18Co (setting [7]); 3.4 µM in the test on HCT-116 (setting [8]); 4.1 µM in the test with HFL1 (setting [9]); 0.00807 µM on SUV39H2; 2.9 µM in the test with A549 (setting [10]).

Turning to `COc1cc(OC)c(-c2cn3ccc(C4CCC(N)CC4)cc3n2)cc1Cl` (stereo not drawn) [Example 125, 4-(2-(5-chloro-2,4-dimethoxyphenyl)imidazo[1,2-a]pyridin-7-yl)-cyclohexanamine], the IC50 in the test on PC14 (setting [6]) came to 5 µM; with CCD-18Co (setting [7]) it was 2.9 µM; with HCT-116 (setting [8]), 2.7 µM; in the test on HFL1 (setting [9]) it was 2.7 µM; on SUV39H2, 0.0651 µM; in the test on A549 (setting [10]) it was 2.3 µM.

Regarding `CC[C@@H](C)[C@H](N)C(=O)Nc1ccn2cc(-c3cc(Cl)c(OC)cc3OC)nc2c1` [Example 258, (2S,3R)-2-amino-N-(2-(5-chloro-2,4-dimethoxyphenyl)imidazo[1,2-a]-pyridin-7-yl)-3-methylpentanamide], the IC50 came out at 5.7 µM with PC14 (setting [1]); 4.6 µM in the test with CCD-18Co (setting [2]); 7.6 µM in the test on HCT-116 (setting [3]); 6.8 µM with HFL1 (setting [4]); 0.0639 µM at SUV39H2; 5.8 µM in the test on A549 (setting [5]).

As to `COc1cc(OC)c(-c2cn3ccc(NC(=O)CN)cc3n2)cc1Cl` [Example 166, 2-amino-N-(2-(5-chloro-2,4-dimethoxyphenyl)imidazo[1,2-a]pyridin-7-yl)-acetamide], the IC50 with PC14 (PC-14, 72 h) worked out at 6.5 µM; in the test with CCD-18Co (CCD-18Co, 72 h) it was 7.9 µM; with HCT-116 (HCT-116, 72 h), 6.1 µM; in the test on HFL1 (HFL1, 72 h) it was 22 µM; on SUV39H2, 0.031 µM; in the test with A549 (A549, 72 h), 7.1 µM.

In the case of `CCCCCNC1CCN(c2ccn3cc(-c4cc(Cl)c(OC)cc4OCCCN(C)C)nc3c2)CC1` [Example 165, 1-(2-{5-chloro-2-[3-(dimethylamino)propoxy]-4-methoxyphenyl}imidazo-[1,2-a]pyridin-7-yl)-N-pentylpiperidin-4-amine], the IC50 with PC14 (setting [6]) came out at 2.2 µM; with CCD-18Co (setting [7]), 2.1 µM; with HCT-116 (setting [8]), 1.7 µM; in the test with HFL1 (setting [9]), 1.7 µM; at SUV39H2, 0.0593 µM; in the test with A549 (setting [10]), 2.2 µM.

As to `COc1cc(OC)c(-c2cn3ccc(N4CCN(C(=O)OC(C)(C)C)CC4)nc3n2)cc1Cl` [Example 145, tert-butyl 4-[2-(5-chloro-2,4-dimethoxyphenyl)imidazo[1,2-a]pyrimidin-7-yl]piperazine-1-carboxylate], the IC50 stood at 1.5 µM in the test on PC14 (setting [6]); 2.8 µM with CCD-18Co (setting [7]); 3.1 µM with HCT-116 (setting [8]); 2.8 µM with HFL1 (setting [9]); 0.0738 µM at SUV39H2; 1.9 µM in the test with A549 (setting [10]).

On to `COc1cc(OC)c(-c2cn3ccc(N4CCNC(CO)C4)cc3n2)cc1Cl` (stereo not drawn) [Example 235, (4-(2-(5-chloro-2,4-dimethoxyphenyl)imidazo[1,2-a]pyridin-7-yl)-piperazin-2-yl)methanol], for which the concentration for half-maximal inhibition (IC50) with PC14 (setting [1]) amounted to 5.6 µM; in the test on CCD-18Co (setting [2]), 6.7 µM; with HCT-116 (setting [3]) it was 6.6 µM; in the test with HFL1 (setting [4]), 4.3 µM; at SUV39H2, 0.0115 µM; in the test on A549 (setting [5]), 5.3 µM.

As for `COc1cc(OC)c(-c2cn3ccc(N4CC[C@H](NCc5ccc(C)cc5)C4)cc3n2)cc1Cl` [Example 305, (S)-1-(2-(5-chloro-2,4-dimethoxyphenyl)imidazo[1,2-a]pyridin-7-yl)-N-(4-methylbenzyl)pyrrolidin-3-amine], the IC50 with PC14 (setting [1]) was 0.99 µM; in the test with CCD-18Co (setting [2]), 0.82 µM; in the test on HCT-116 (setting [3]) it was 0.59 µM; in the test on HFL1 (setting [4]), 0.67 µM; at SUV39H2, 0.0117 µM; in the test with A549 (setting [5]) it was 1.1 µM.

Take `COc1cc(OC)c(-c2cn3ccc(N4CCN(c5ncccc5C#N)CC4)cc3n2)cc1Cl` [Example 283, 2-(4-(2-(5-chloro-2,4-dimethoxyphenyl)imidazo[1,2-a]pyridin-7-yl)-piperazin-1-yl)nicotinonitrile]: the IC50 is 0.68 µM in the test with PC14 (setting [1]); 0.45 µM in the test on CCD-18Co (setting [2]); 0.42 µM with HCT-116 (setting [3]); 0.69 µM with HFL1 (setting [4]); 0.0141 µM at SUV39H2; 0.66 µM in the test with A549 (setting [5]).

Take `COc1cc(OC)c(-c2cn3ccc(NC(=O)CCN)cc3n2)cc1Cl` [Example 168, 3-amino-N-[2-(5-chloro-2,4-dimethoxyphenyl)imidazo[1,2-a]pyridin-7-yl]-propanamide]: the IC50 was determined as 6.2 µM in the test on PC14 (setting [6]); 9.5 µM with CCD-18Co (setting [7]); 1.4 µM in the test with HCT-116 (setting [8]); 2.7 µM with HFL1 (setting [9]); 0.0283 µM at SUV39H2; 39 µM with A549 (setting [10]).

For `COc1cc(OC)c(-c2cn3ccc(N4CCN(C5CCCC5)CC4)cc3n2)cc1Cl` [Example 239, 2-(5-chloro-2,4-dimethoxyphenyl)-7-(4-cyclopentylpiperazin-1-yl)imidazo[1,2-a]pyridine], the IC50 in the test with PC14 (setting [1]) was found to be 1.8 µM; with CCD-18Co (setting [2]) it was 2.1 µM; in the test with HCT-116 (setting [3]), 1.5 µM; in the test on HFL1 (setting [4]), 1.7 µM; on SUV39H2 it was 0.021 µM; with A549 (setting [5]), 1.5 µM.

Consider `COc1cc(OCCCN(C)C)c(-c2cn3ccc(N4CCCN(S(=O)(=O)N(C)C)CC4)cc3n2)cc1Cl` [Example 216, 4-(2-{5-chloro-2-[3-(dimethylamino)propoxy]-4-methoxyphenyl}-imidazo[1,2-a]pyridin-7-yl)-N,N-dimethyl-1,4-diazepane-1-sulfonamide], for which the IC50 in the test with PC14 (setting [1]) was 1.6 µM; with CCD-18Co (setting [2]) it was 2.7 µM; with HCT-116 (setting [3]), 3.3 µM; with HFL1 (setting [4]), 1.5 µM; at SUV39H2, 0.0194 µM; in the test with A549 (setting [5]), 1.9 µM.

Turning to `CCS(=O)(=O)N1CCN(c2ccn3cc(-c4cc(Cl)c(OC)cc4OCCCN(C)C)nc3c2)CC1` [Example 199, 3-(4-chloro-2-(7-(4-(ethylsulfonyl)piperazin-1-yl)imidazo[1,2-a]pyridin-2-yl)-5-methoxyphenoxy)-N,N-dimethylpropan-1-amine], the IC50 stood at 3 µM in the test on PC14 (setting [6]); 3.9 µM with CCD-18Co (setting [7]); 6.4 µM in the test with HCT-116 (setting [8]); 4.8 µM with HFL1 (setting [9]); 0.0168 µM at SUV39H2; 5.2 µM in the test on A549 (setting [10]).

On to `COc1cc(OC)c(-c2cn3ccc(N4CCC(NS(C)(=O)=O)CC4)cc3n2)cc1Cl` [Example 128, N-{1-[2-(5-chloro-2,4-dimethoxyphenyl)imidazo[1,2-a]pyridin-7-yl]piperidin-4-yl}methanesulfonamide], for which the IC50 with PC14 (setting [6]) turned out to be 1.8 µM; with CCD-18Co (setting [7]) it was 1.1 µM; in the test on HCT-116 (setting [8]) it was 4.5 µM; in the test on HFL1 (setting [9]), 0.58 µM; at SUV39H2 it was 0.00883 µM; in the test on A549 (setting [10]) it was 1.5 µM.

For `COc1cc(OC)c(-c2cn3ccc(N4CCC(NC(=O)C(C)(C)C)CC4)cc3n2)cc1Cl` [Example 123, N-(1-(2-(5-chloro-2,4-dimethoxyphenyl)imidazo[1,2-a]pyridin-7-yl)piperidin-4-yl)pivalamide], the concentration for half-maximal inhibition (IC50) in the test on PC14 (setting [6]) was 2.2 µM; in the test with CCD-18Co (setting [7]) it was 3.4 µM; with HCT-116 (setting [8]), 2.6 µM; in the test with HFL1 (setting [9]) it was 2 µM; on SUV39H2, 0.00771 µM; in the test on A549 (setting [10]), 3.3 µM.

On to `COc1cc(OC)c(-c2cn3ccc(C4=CCN(P(=O)(OC)OC)CC4)cc3n2)cc1Cl` [Example 195, dimethyl{4-[2-(5-chloro-2,4-dimethoxyphenyl)imidazo[1,2-a]pyridin-7-yl]-5,6-dihydropyridin-1(2H)-yl}phosphonate], for which the IC50 in the test with PC14 (PC-14, 72 h) turned out to be 0.51 µM; in the test on CCD-18Co (CCD-18Co, 72 h), 5.5 µM; in the test with HCT-116 (HCT-116, 72 h) it was 0.93 µM; with HFL1 (HFL1, 72 h), 2.8 µM; at SUV39H2, 0.0375 µM; in the test on A549 (A549, 72 h), 0.7 µM.

Take `COc1cc(OC)c(-c2cn3ccc(N4CCCNCC4)cc3n2)cc1Cl` [Example 189, 2-(5-chloro-2,4-dimethoxyphenyl)-7-(1,4-diazepan-1-yl)imidazo[1,2-a]pyridine]: the IC50 amounted to 2.9 µM in the test on PC14 (setting [6]); 6.3 µM with CCD-18Co (setting [7]); 3 µM with HCT-116 (setting [8]); 2 µM in the test on HFL1 (setting [9]); 0.00433 µM on SUV39H2; 3.5 µM with A549 (setting [10]).
